Tests used:
[1] = biological target: Casein kinase I isoform gamma-1 (Homo sapiens) (UniProt Q9HCP0); assay: Selectivity interaction (KinomeScan (DiscoverX)) EUB0000595a CSNK1G1; conditions: at 10 µM
[2] = biological target: WD repeat-containing protein 48 (Homo sapiens) (UniProt Q8TAF3); assay: Selectivity interaction (PWWP, WD40, and Tudor domain panel (DSLS measurements, literature)) EUB0000270b WDR48
[3] = biological target: T1, Serine/threonine-protein kinase DCLK2 (Homo sapiens) (UniProt Q8N568); assay: Selectivity interaction (Upstate Kinase Profiler service (Millipore)) EUB0000056c DCLK2; conditions: at 1 µM
T1 sequence (whole entry): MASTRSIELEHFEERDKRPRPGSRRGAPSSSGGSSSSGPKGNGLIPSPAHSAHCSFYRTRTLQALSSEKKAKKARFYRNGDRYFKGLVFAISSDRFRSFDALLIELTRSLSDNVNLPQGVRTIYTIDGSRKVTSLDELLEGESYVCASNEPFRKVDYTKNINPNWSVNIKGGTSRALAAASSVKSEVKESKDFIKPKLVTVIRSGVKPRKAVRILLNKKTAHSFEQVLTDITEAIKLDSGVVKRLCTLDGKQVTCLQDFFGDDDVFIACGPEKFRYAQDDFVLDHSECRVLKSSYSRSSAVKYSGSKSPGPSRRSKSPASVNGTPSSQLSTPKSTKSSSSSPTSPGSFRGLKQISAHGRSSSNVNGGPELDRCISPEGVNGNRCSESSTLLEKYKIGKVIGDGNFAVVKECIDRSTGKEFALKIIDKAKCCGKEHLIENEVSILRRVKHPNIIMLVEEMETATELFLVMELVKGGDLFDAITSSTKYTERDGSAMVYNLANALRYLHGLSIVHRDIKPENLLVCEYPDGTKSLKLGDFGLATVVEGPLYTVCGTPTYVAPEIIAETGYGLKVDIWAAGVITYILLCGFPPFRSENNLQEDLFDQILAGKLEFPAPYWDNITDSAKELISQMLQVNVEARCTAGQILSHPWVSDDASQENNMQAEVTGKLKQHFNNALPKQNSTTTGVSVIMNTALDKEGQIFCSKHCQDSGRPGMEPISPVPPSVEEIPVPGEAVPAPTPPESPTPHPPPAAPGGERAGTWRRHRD

[4] = biological target: T2, Serine/threonine-protein kinase TNNI3K (Homo sapiens) (UniProt Q59H18); assay: Selectivity interaction (KinomeScan (DiscoverX)) EUB0000092b TNNI3K; conditions: at 10 µM
T2 sequence (whole entry): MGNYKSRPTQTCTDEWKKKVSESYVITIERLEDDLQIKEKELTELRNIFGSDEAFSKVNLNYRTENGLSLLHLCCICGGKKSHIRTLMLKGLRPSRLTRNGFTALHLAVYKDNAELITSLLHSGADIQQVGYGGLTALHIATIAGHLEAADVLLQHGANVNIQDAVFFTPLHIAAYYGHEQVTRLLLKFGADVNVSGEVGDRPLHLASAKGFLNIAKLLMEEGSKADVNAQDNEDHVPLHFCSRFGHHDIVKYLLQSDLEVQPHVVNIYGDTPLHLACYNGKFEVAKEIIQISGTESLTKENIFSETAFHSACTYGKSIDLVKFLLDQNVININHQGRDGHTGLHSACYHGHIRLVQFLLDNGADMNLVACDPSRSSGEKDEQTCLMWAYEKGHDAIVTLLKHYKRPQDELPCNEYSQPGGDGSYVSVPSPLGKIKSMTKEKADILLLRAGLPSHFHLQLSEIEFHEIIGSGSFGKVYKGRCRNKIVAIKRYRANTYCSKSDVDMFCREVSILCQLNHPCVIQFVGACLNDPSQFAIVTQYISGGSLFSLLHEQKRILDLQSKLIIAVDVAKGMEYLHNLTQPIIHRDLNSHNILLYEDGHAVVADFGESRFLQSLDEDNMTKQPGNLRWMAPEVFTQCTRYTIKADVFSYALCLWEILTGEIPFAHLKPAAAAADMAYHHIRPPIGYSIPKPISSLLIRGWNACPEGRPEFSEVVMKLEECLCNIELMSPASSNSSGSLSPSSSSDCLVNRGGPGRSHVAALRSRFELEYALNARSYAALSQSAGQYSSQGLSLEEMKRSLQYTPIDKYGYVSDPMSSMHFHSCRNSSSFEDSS

Sequence of Casein kinase I isoform gamma-1 (Homo sapiens) (Q9HCP0 whole entry, looked up, the tested form may be a part, canonical isoform): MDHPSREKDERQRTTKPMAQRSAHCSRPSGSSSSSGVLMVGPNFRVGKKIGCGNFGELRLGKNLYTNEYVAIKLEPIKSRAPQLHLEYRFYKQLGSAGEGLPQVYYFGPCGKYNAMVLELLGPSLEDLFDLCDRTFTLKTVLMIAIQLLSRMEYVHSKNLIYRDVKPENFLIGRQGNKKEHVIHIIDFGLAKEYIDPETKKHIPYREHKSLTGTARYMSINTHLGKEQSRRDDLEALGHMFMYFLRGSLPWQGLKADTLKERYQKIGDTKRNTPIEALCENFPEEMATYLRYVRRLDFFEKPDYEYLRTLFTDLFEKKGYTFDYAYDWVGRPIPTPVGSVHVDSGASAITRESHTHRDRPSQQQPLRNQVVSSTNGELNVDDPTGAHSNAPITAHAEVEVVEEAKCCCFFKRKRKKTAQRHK
Sequence of WD repeat-containing protein 48 (Homo sapiens) (Q8TAF3 whole entry, the tested form may be a part): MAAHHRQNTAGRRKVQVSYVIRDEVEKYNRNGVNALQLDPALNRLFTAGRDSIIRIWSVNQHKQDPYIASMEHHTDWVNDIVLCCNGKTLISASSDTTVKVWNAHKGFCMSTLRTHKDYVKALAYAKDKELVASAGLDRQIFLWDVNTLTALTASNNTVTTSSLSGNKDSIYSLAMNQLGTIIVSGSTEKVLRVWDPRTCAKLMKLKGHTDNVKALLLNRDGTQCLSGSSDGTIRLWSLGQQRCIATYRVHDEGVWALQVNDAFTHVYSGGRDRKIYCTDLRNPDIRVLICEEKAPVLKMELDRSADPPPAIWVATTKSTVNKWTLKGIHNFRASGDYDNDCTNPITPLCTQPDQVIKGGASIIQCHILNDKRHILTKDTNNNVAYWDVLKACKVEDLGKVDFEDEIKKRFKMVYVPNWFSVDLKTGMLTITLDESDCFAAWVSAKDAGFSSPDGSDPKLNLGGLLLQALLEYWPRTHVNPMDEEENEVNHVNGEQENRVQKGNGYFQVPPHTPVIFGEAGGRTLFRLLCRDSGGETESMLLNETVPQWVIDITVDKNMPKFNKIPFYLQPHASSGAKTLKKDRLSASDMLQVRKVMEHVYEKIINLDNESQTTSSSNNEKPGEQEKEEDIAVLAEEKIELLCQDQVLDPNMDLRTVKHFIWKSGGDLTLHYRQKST

Structure (SMILES): COCC(=O)NC/C=C/c1ccc2ncnc(Nc3ccc(Oc4ccc(C)nc4)c(C)c3)c2c1 [CP-724714]
- % of control [1]: 100%

Structure (SMILES): Cc1cc(CN)cc(C)c1-c1ncn(C)c1-c1cncn1C
- dTagg [2]: 0.1 K

Structure (SMILES): Cc1ccc(-c2ccc3c(ccc4sc5c(c43)NC[C@@H](C)NC5=O)n2)cn1
- % of inhibition [3]: -1%

Structure (SMILES): CCC(=O)N1CCN(c2ccc(-n3c(=O)ccc4cnc5ccc(-c6cnc7ccccc7c6)cc5c43)cc2C(F)(F)F)CC1
- % of control [4]: 66%

Reference: ChEMBL document CHEMBL5465560, “Selectivity Literature for EUbOPEN Chemogenomic Library” (2024)
